Results from patent US6737438B2, “Substituted 1,2,4-trioxanes useful as antimalarial agents and a process for the preparation thereof” (Council of Scientific and Industrial Research, priority 2002, dated 2004).
Read-outs that look alike come from different tables or passages of the source.

Test system: multidrug resistant strain of Plasmodium yoelii Nigeriensis
Assay: Antimalarial activity against multidrug resistant P. yoelii in swiss mice
Assay type: in vivo
Conditions: for % Suppression on Day 4 / inhibition in vivo at 96 mg/kg: 4 consecutive days (day 0-3), parasitaemia vs vehicle control; for Cured/treated: observed till day 28; for inhibition in vivo at 96 mg/kg / responders at 96 mg/kg: Plasmodium yoelii; for inhibition in vivo at 96 mg/kg: 96 h, read-out: % Suppression on Day 4; for responders at 96 mg/kg: 672 h, observed till day 28, read-out: Cured/treated (converted)

Compound	% Suppression on Day 4 (i.m., 96 mg/kg) [%]	Cured/treated (i.m., 96 mg/kg)	% Suppression on Day 4 (oral, 96 mg/kg)	Cured/treated (oral, 96 mg/kg)	% Suppression on Day 4 (oral, 48 mg/kg) [%]	Cured/treated (oral, 48 mg/kg)	inhibition in vivo at 96 mg/kg (oral, 96 mg/kg) [%]	responders at 96 mg/kg (oral, 96 mg/kg) [%]	inhibition in vivo at 96 mg/kg (im, i.m., 96 mg/kg) [%]	responders at 96 mg/kg (im, i.m., 96 mg/kg) [%]
8-[(4′-cyclooctylphenyl)vinyl]-6,7,10-trioxaspiro(4,5)undecane [Trioxane 7de]	57.4	0/5	100%	3/5						
C=C(c1ccc(C2CCCCC2)cc1)C1COC2(CCC(c3ccccc3)CC2)OO1 (mixture of isomers) [Trioxane 7be]	91.6	0/5			100	5/5				
C(=CC1COC2(CCCC2)OO1)c1ccc(C2CCCC2)cc1 (stereo not shown) [Trioxane 7aa, 8-[(4′-Cyclopentylphenyl)vinyl]-6,7,10-trioxaspiro-[4,5]-decane]	100	0/5	100%	5/5						
C=C(c1ccc(C2CCCC2)cc1)C1COC2(CCC(c3ccccc3)CC2)OO1 (stereo not shown) [Trioxane 7ab]	77.56	0/5	100%	0/5						
C(=CC1COC2(CCCCC2)OO1)c1ccc(C2CCCC2)cc1 (stereo not shown) [Trioxane 7ac, 3-[(4′-cyclopentylphenyl)vinyl]-1,2,5-trioxaspiro(5,5)undecane]	84.94	0/5	100%	5/5						
C(=CC1COC2(CCCCCC2)OO1)c1ccc(C2CCCC2)cc1 (stereo not shown) [Trioxane 7ad]	48	0/5	88.68%	0/5						
C=C(c1ccc(C2CCCC2)cc1)C1COC2(CCC(C(C)(C)CC)CC2)OO1 (stereo not shown) [Trioxane 7ae]	43.58	0/5	100%	0/5						
C(=CC1COC(c2ccccc2)OO1)c1ccc(C2CCCCC2)cc1 (stereo not shown) [Trioxane 7bc, 6-[(4′-cyclohexylphenyl)vinyl]-3-phenyl-1,2,4-trioxane]	41.98	0/5	95.64%	0/5						
C(=CC1COC2(CCCCC2)OO1)c1ccc(C2CCCCC2)cc1 (stereo not shown) [Trioxane 7bd, 3-[(4′-Cyclohexylphenyl)vinyl]-1,2,5-trioxaspiro(5,5)undecane]	71.73	0/5	100%	5/5						
CCC1(C)OCC(C=Cc2ccc(C3CCCCC3)cc2)OO1 (stereo not shown) [Trioxane 7bf]	71.26	0/5	100%	0/5						
C(=CC1COC2(CCCC2)OO1)c1ccc(C2CCCCC2)cc1 (stereo not shown) [Trioxane 7bh, 8-[(4′-cyclohexylphenyl)vinyl]-6,7,10-trioxaspiro (4,5) decane]	100	1/4	100%	4/4						
C=C(c1ccc(C2CCCCC2)cc1)C1COC2(CCC(C(C)(C)CC)CC2)OO1 (stereo not shown) [Trioxane 7bi]	53.01	0/5	100%	5/5						
C(=CC1COC2(CCCCC2)OO1)c1ccc(C2CCCCCC2)cc1 (stereo not shown) [Trioxane 7ca, 3-[(4′-cycloheptylphenyl)vinyl]-1,2,5-trioxaspiro-[5,5]-undecane]	62.18	0/5	100%	1/5						
C=C(c1ccc(C2CCCCCC2)cc1)C1COC2(CCC(C(C)(C)CC)CC2)OO1 (stereo not shown) [Trioxane 7cb]	86.31	0/5	100%	5/5						
C=C(c1ccc(C2CCCCCC2)cc1)C1COC2(CCC(c3ccccc3)CC2)OO1 (stereo not shown) [Trioxane 7cd]	58.17	0/5	100%	2/5						
C(=CC1COC2(CCCCC2)OO1)c1ccc(C2CCCCCCC2)cc1 (stereo not shown) [Trioxane 7db, 3-[(4′-cyclooctylphenyl)vinyl]-1,2,5-trioxaspiro-(5,5)-undecane]	9.5	0/5	100%	5/5						
C=C(c1ccc(C2CCCCCCC2)cc1)C1COC2(CCC(c3ccccc3)CC2)OO1 (stereo not shown) [Trioxane 7dd]	73.81	0/5	100%	4/5						
C=C(c1ccc(C2CCCCCCC2)cc1)C1COC2(CCC(C(C)(C)CC)CC2)OO1 (stereo not shown) [Trioxane 7df]	0	0/5	100%	3/5						
C(=CC1COC2(CCCC2)OO1)c1ccc(-c2ccccc2)cc1 (stereo not shown) [Trioxane 7eb, 8-[([1,1′-biphenyl]-4yl)vinyl]-6,7,10-trioxaspiro (4,5) decane]							100	0	100	100
C(=CC1COC2(CCCCC2)OO1)c1ccc(-c2ccccc2)cc1 (stereo not shown) [Trioxane 7ec, 3-[([1,1′-biphenyl]-4yl)vinyl]-1,2,5-trioxaspiro (5,5) undecane]							100	100	100	0
C=C(c1ccc(-c2ccccc2)cc1)C1COC2(CCC(c3ccccc3)CC2)OO1 (stereo not shown) [Trioxane 7ef]	42.7	0/5	100%	2/5						
C=C(c1ccc(-c2ccccc2)cc1)C1COC2(CCC(C(C)(C)CC)CC2)OO1 (stereo not shown) [Trioxane 7eg]	87.6	0/5	100%	3/5						
C(=CC1COC2(CCCCCC2)OO1)c1ccc(-c2ccccc2)cc1 (stereo not shown) [Trioxane 7eh, 3[([1,1′-biphenyl]-4yl)vinyl]-1,2,5-trioxaspiro(5,6)dodecane]							100	80	92	0
CC1(C)OCC(C=Cc2ccc(-c3ccc(Br)cc3)cc2)OO1 (stereo not shown) [Trioxane 7fa, 3,3-Dimethyl-6-[(4′-bromo-[1,1′-biphenyl]-4-yl)-vinyl]-1,2,4-trioxane]			died						83.7	0
CCC1(C)OCC(C=Cc2ccc(-c3ccc(Br)cc3)cc2)OO1 (stereo not shown) [Trioxane 7fb, 3-Ethyl-3-methly-6-[(4′-bromo-[1,1′-biphenyl]-4-yl)-vinyl]-1,2,4-trioxane]	51.41	0/5	100%	0/5						
Brc1ccc(-c2ccc(C=CC3COC4(CCCCC4)OO3)cc2)cc1 (stereo not shown) [Trioxane 7fc, 3-[(4′-bromo-[1,1′-biphenyl]-4-yl)-vinyl]-1,2,5-trioxaspiro (5,5) undecane]							100	100	46.4	20
